Active and inactive are the calls of the source. No cut-off for these calls is given here.
System: KB
Test: Cytotoxicity against human KB cells
Format: functional, cell-based

SMILES	Activity	IC50 [µM]
CCOC(=O)CCC[C@@H]1C[C@H]2C[C@](/C=C/c3ccccc3)(Oc3cc4c(c(O)c32)C(=O)C[C@@H](c2ccccc2)O4)O1	inactive	
O=C1C=CC[C@H](C[C@@H]2C[C@H]3C[C@](/C=C/c4ccccc4)(Oc4c(C(=O)/C=C/c5ccccc5)c(O)cc(O)c43)O2)O1 [OBOCHALCOLACTONE]		5
O=C1C=C(/C=C/c2ccccc2)O[C@H](C[C@H]2CC=CC(=O)O2)C1 [OBOLACTONE]		3
CCOC(=O)CCC[C@@H]1C[C@H]2C[C@](/C=C/c3ccccc3)(Oc3cc4c(c(O)c32)C(=O)C[C@H](c2ccccc2)O4)O1	inactive	
